# Measured values reported in patent US20050137194A1, “Combination of selected opioids with other active compounds for treatment of urinary incontinence” (Gruenenthal GmbH, priority 2002, published 2005).
# Like-named read-outs stand apart in the source and are kept apart here. Marks after values point to notes of the source that are not given here.
# What was measured:
# naive female rats = assay: Cystometry test system on narcotized naive rats (suppression of spontaneous bladder contractions); format: in vivo, rat; conditions: i.v. cumulative; for minimal effective dose: Rattus norvegicus, iv, 10 min, read-out: Lowest dose at which for the first time contractions were absent over a period of 10 minutes
# Protocol: The cystometric investigation on naive female rats was carried out in accordance with the method of Kimura et al. (Kimura et al., 1996, Int. J. Urol. 3: 218-227). The abdomen of narcotized, ventilated rats is opened up and the ureter is ligated. The urine is drained from the kidneys. A catheter is inserted into the bladder and fixed. […] After stable starting values have been reached, the test substance is administered i.v. in a cumulative manner. Influencing of the bladder function manifests itself via suppression of the spontaneous contractions. In this context, the absence of contractions over a period of 10 min is a parameter for the suppression.
# With all the substances listed here, a suppression of the spontaneous contractions was measurable in the rats, table 3 showing the mean of the lowest dose of at least 2 experiments at which for the first time contractions were absent over a period of 10 minutes.
# With all the substances listed here, a suppression of the spontaneous contractions was measurable in the rats, table 4 showing the mean of the lowest dose of at least 2 experiments at which for the first time contractions were absent over a period of 10 minutes.
# With all the substances listed here, a suppression of the spontaneous contractions was measurable in the rats, table 5 showing the mean of the lowest dose of at least 2 experiments at which for the first time contractions were absent over a period of 10 minutes. […]
# [1] = system: naive, female Sprague-Dawley rats; assay: Cystometry test system on conscious naive rats; conditions: for action on bladder regulation (in words): conscious naive rats, i.v.
# Protocol: Three days after implantation of bladder and venous catheters, the animals were investigated in the freely mobile, conscious state. The bladder catheter was connected to a pressure transducer and an injection pump. The animals were placed in metabolism cages which allowed measurement of the volume of urine. Physiological saline solution was infused into the emptied bladder (10 ml/h) and the bladder pressure and micturition volume were recorded continuously. After a stabilization phase, a 20 minute phase, which was characterized by normal, reproducible micturition cycles, was recorded. The following parameters, inter alia, were determined: • threshold pressure (TP, bladder pressure immediately before micturition), • bladder capacity (BC, residual volume after preceding micturition plus volume of the infused solution during the filling phase), • intercontraction interval (ICI, the interval of time between micturitions).
# [2] = system: female Sprague-Dawley rats; assay: Cystometry test system on conscious damaged rats (oxyhaemoglobin-induced bladder hyperactivity, urgency incontinence model)
# From the text: This model simulates the urgency incontinence in an animal model; the oxyhaemoglobin (OxyHb) employed induces a bladder hyperactivity.
# Three days after implantation of bladder and venous catheters, the animals were investigated in the freely mobile, conscious state. The bladder catheter was connected to a pressure transducer and an injection pump. The animals were placed in metabolism cages which allowed measurement of the volume of urine. Physiological saline solution was infused into the emptied bladder (10 ml/h) and the bladder pressure and micturition volume were recorded continuously. After a stabilization phase, a 20 minute phase, which was characterized by normal, reproducible micturition cycles, was recorded. The following parameters, inter alia, were determined: • threshold pressure (TP, bladder pressure immediately before micturition), • bladder capacity (BC, residual volume after preceding micturition plus volume of the infused solution during the filling phase), • intercontraction interval (ICI, the interval of time between micturitions) • micturition pressure (MP, maximum bladder pressure during a micturition).
# After three reproducible micturition cycles had been recorded as the pre-value, 2.5×10^−4 M oxyhemoglobin in the vehicle=0.9% NaCl were infused into the bladder. The action on the cystometric parameters was recorded for about 20 minutes. At the action maximum the mean of 3 micturition cycles was determined and shown as a percentage change compared with the pre-value (table 8).
# rat = rat model of rhythmic bladder contractions; Nippon-Shinyaku, WO 98/46216; cited from earlier work
# [3] = mean of at least 3 independent experiments
# [4] = 1.0 mg/kg iv, action maximum, mean of 3 micturition cycles
# [5] = after OxyHb 2.5 × 10^−4 M, n = 5, average ± standard deviation
# [6] = pre-value before OxyHb 2.5 × 10^−4 M, n = 5, average ± standard deviation
compound,measurement,setting,value
"CCC1(c2cccc(O)c2)CCCCN(C)C1 (centres unmarked) [meptazinol, reference compound]",minimal effective dose,naive female rats; [3],1 mg/kg
"COc1cccc([C@@]2(O)C[C@H](O)CC[C@@H]2CN(C)C)c1.Cl (racemic) [Compound 24, (1RS,3RS,6RS)-6-dimethylaminomethyl-1-(3-methoxy-phenyl)-cyclohexane-1,3-diol, hydrochloride]","BC bladder capacity, change relative to the pre-value",[1]; [4],−8.0%
same,"ICI intercontraction interval, change relative to the pre-value",[1]; [4],−15% **
same,"TP threshold pressure, change relative to the pre-value",[1]; [4],+44.0% ***
same,"BC bladder capacity, change relative to the pre-value",[1]; 3.0 mg/kg iv,−16.0% *
same,"ICI interconnection interval, change relative to the pre-value",[1]; 3.0 mg/kg iv,−16% *
same,"TP threshold pressure, change relative to the pre-value",[1]; 3.0 mg/kg iv,+94.0% **
same,"BC bladder capacity, change relative to the pre-value",[1]; 5.0 mg/kg iv,−26.0% *
same,"ICI interconnection interval, change relative to the pre-value",[1]; 5.0 mg/kg iv,−21.2%
same,"TP threshold pressure, change relative to the pre-value",[1]; 5.0 mg/kg iv,+69.0% *
"CCC(O)(c1cccc(O)c1)C(C)CN(C)C.Cl (racemic) [Compound 7, (2RS,3RS)-3-(3-dimethylamino-1-ethyl-1-hydroxy-2-methyl-propyl)-phenol, hydrochloride]","BC bladder capacity, change relative to the pre-value",[1]; 0.3 mg/kg iv,+32% *
same,"ICI intercontraction interval, change relative to the pre-value",[1]; 0.3 mg/kg iv,+28% *
same,"TP threshold pressure, change relative to the pre-value",[1]; 0.3 mg/kg iv,+95% **
"CCC(O)(c1cccc(OC)c1)C1(CN(C)C)CCCCC1.Cl (racemic) [Compound 13, (1RS)-1-(1-dimethylaminomethyl-cyclohexyl)-1-(3-methoxy-phenyl)-propan-1-ol, hydrochloride]",minimal effective dose,naive female rats; mean of at least 2 experiments,20 mg/kg
"C[C@H]1CC[C@H](CN(C)C)[C@@](O)(c2cccc(O)c2)C1.Cl [Compound 28, (+)-(1R,2R,5S)-3-(2-dimethylaminomethyl-1-hydroxy-5-methyl-cyclohexyl)-phenol, hydrochloride]",minimal effective dose,naive female rats; mean of at least 2 experiments,16.7 mg/kg
"CN(C)C[C@@H]1CCCC[C@H]1c1cccc(O)c1.Cl [Compound 20, (−)-(1R,2R)-3-(2-dimethylaminomethyl-cyclohexyl)-phenol, hydrochloride]",minimal effective dose,naive female rats; mean of at least 2 experiments,0.5 mg/kg
"COc1cccc(C(O)(CCN(C)C)C(C)(C)C)c1.Cl (racemic) [Compound 6, (3RS)-1-dimethylamino-3-(3-methoxy-phenyl)-4,4-dimethyl-pentan-3-ol, hydrochloride]",Lowest dose at which for the first time contractions were absent over a period of 10 minutes,naive female rats; mean of at least 2 experiments,16.7 mg/kg
"CC[C@](O)(c1cccc(C(F)F)c1)[C@H](C)CN(C)C.Cl (racemic) [Compound 4, (2RS,3RS)-3-(3-difluoromethyl-phenyl)-1-dimethylamino-2-methyl-pentan-3-ol, hydrochloride]",minimal effective dose,naive female rats; mean of at least 2 experiments,1.7 mg/kg
"CC[C@](OC(C)=O)(c1cccc(OC)c1)[C@H](C)CN(C)C.Cl [Compound 12, (+)-(1R,2R)-acetic acid 3-dimethylamino-1-ethyl-1-(3-methoxy-phenyl)-2-methyl-propyl ester, hydrochloride]",minimal effective dose,naive female rats; mean of at least 2 experiments,30 mg/kg
oxyhaemoglobin [OxyHb],"BC bladder capacity, change (diff) in comparison with the pre-value",[2]; OxyHb 2.5 × 10^−4 M alone,diff: −29.3%
same,"ICI intercontraction interval, change (diff) in comparison with the pre-value",[2]; OxyHb 2.5 × 10^−4 M alone,diff: −32.9%
same,"MP micturition pressure, change (diff.) in comparison with the pre-value",[2]; OxyHb 2.5 × 10^−4 M alone,diff.: +64.4%
same,"TP threshold pressure, change (diff.) in comparison with the pre-value",[2]; OxyHb 2.5 × 10^−4 M alone,diff.: +12.8%
same,"BC bladder capacity, after (a)",[2]; [5],a: 0.65 ± 0.06 ml
same,"ICI intercontraction interval, after (a)",[2]; [5],a: 3.33 ± 0.18 min
same,"MP micturition pressure, after (a)",[2]; [5],a: 97 ± 5 cm H2O
same,"TP threshold pressure, after (a)",[2]; [5],a: 9.84 ± 1.56 cm H2O
same,"BC bladder capacity, before (b)",[2]; [6],b: 0.92 ± 0.10 ml
same,"ICI intercontraction interval, before (b)",[2]; [6],b: 4.96 ± 0.33 min
same,"MP micturition pressure, before (b)",[2]; [6],b: 59 ± 8 cm H2O
same,"TP threshold pressure, before (b)",[2]; [6],b: 8.72 ± 1.31 cm H2O
"CN(C)C[C@H]1CC[C@@H](O)C[C@]1(O)c1cccc(O)c1.Cl (racemic) [Compound 26, (1RS,3RS,6RS)-6-dimethylaminomethyl-1-(3-hydroxy-phenyl)-cyclohexane-1,3-diol, hydrochloride]","BC bladder capacity, change relative to the pre-value",[1]; 3.0 mg/kg iv,+29.0% *
same,"ICI interconnection interval, change relative to the pre-value",[1]; 3.0 mg/kg iv,+27.0% *
same,"TP threshold pressure, change relative to the pre-value",[1]; 3.0 mg/kg iv,+86.0% ***
"CN(C)C[C@H]1CC[C@@H](C(F)(F)F)C[C@]1(O)c1cccc(O)c1.Cl (racemic) [Compound 29, (1RS,2RS,5RS)-3-(2-dimethylaminomethyl-1-hydroxy-5-trifluoromethyl-cyclohexyl)-phenol, hydrochloride]",minimal effective dose,naive female rats; mean of at least 2 experiments,23.3 mg/kg
"CC[C@](O)(c1cccc(OC)c1)[C@H](C)CN(C)C.Cl [Compound 2, (+)-(2R,3R)-1-dimethylamino-3-(3-methoxy-phenyl)-2-methyl-pentan-3-ol, hydrochloride]",action on bladder regulation (in words),[1],effectively active
"CN(C)C[C@H]1CCCC[C@@H]1c1cccc(O)c1.Cl [Compound 19, (+)-(1S,2S)-3-(2-dimethylaminomethyl-cyclohexyl)-phenol, hydrochloride]",minimal effective dose,naive female rats; mean of at least 2 experiments,0.1 mg/kg
"CN(C)C[C@H]1CCCC[C@]1(F)c1cccc(O)c1.Cl [Compound 18, (+)-(1R,2R)-3-(2-dimethylaminomethyl-1-fluoro-cyclohexyl)-phenol, hydrochloride]",minimal effective dose,naive female rats; mean of at least 2 experiments,0.2 mg/kg
"CC[C@@](O)(c1cccc(OC)c1)[C@@H](C)CN(C)C.Cl [Compound 21, (−)-(2S,3S)-1-dimethylamino-3-(3-methoxy-phenyl)-2-methyl-pentan-3-ol, hydrochloride]",action on bladder regulation (in words),[1],does not contribute to the action
"CCOC(=O)C1(c2ccccc2)CCC=CC1N(C)C (centres unmarked) [tilidine, reference compound]",minimal effective dose,naive female rats; [3],0.5 mg/kg
"CC[C@](O)(c1ccc(Cl)cc1)[C@H](C)CN(C)C.Cl (racemic) [Compound 14, (2RS,3RS)-3-(4-chlorophenyl)-1-dimethylamino-2-methyl-pentan-3-ol, hydrochloride]",minimal effective dose,naive female rats; mean of at least 2 experiments,20 mg/kg
"C[C@H](CN(C)C)[C@@](C)(O)c1cccc(O)c1.Cl (racemic) [Compound 8, (1RS,2RS)-3-(3-dimethylamino-1-hydroxy-1,2-dimethyl-propyl)-phenol, hydrochloride]","BC bladder capacity, change relative to the pre-value",[1]; [4],+7%
same,"ICI intercontraction interval, change relative to the pre-value",[1]; [4],+14.4%
same,"TP threshold pressure, change relative to the pre-value",[1]; [4],+60% **
"C[C@H](CN(C)C)[C@@](C)(O)c1cccc(O)c1.Cl [Compound 9, (+)-(1R,2R)-3-(3-dimethylamino-1-hydroxy-1,2-dimethyl-propyl)-phenol, hydrochloride]","BC bladder capacity, change relative to the pre-value",[1]; 0.5 mg/kg iv,+50% **
same,"ICI intercontraction interval, change relative to the pre-value",[1]; 0.5 mg/kg iv,+21% *
same,"TP threshold pressure, change relative to the pre-value",[1]; 0.5 mg/kg iv,+56% **
"CC[C@](O)(c1ccc(Cl)c(Cl)c1)[C@H](C)CN(C)C.Cl (racemic) [Compound 3, (2RS,3RS)-3-(3,4-dichlorophenyl)-1-dimethylamino-2-methyl-pentan-3-ol, hydrochloride]",Lowest dose at which for the first time contractions were absent over a period of 10 minutes,naive female rats; mean of at least 2 experiments,23.3 mg/kg
"COc1cccc([C@@]2(O)C[C@@H](O)CC[C@@H]2CN(C)C)c1.Cl (racemic) [Compound 27, (1RS,3SR,6RS)-6-dimethylaminomethyl-1-(3-methoxy-phenyl)-cyclohexane-1,3-diol, hydrochloride]",minimal effective dose,naive female rats; mean of at least 2 experiments,115 mg/kg
"CC[C@](O)(c1cccc(SC)c1)[C@H](C)CN(C)C.Cl (racemic) [Compound 5, (2RS,3RS)-1-dimethylamino-2-methyl-3-(3-methylsulfanyl-phenyl)-pentan-3-ol, hydrochloride]",minimal effective dose,naive female rats; mean of at least 2 experiments,2.3 mg/kg
"COc1cccc(C2(O)CCCCC2CN(C)C)c1 (racemic) [Compound 23, rac-tramadol, reference compound]",effect on bladder function (in words),rat,positive effect on bladder function
same,minimal effective dose,naive female rats; mean of at least 2 experiments,5.3 mg/kg
"C[C@H](CN(C)C)[C@@](C)(O)c1cccc(O)c1.Cl [Compound 10, (+)-(1R,2R)-3-(3-dimethylamino-1-hydroxy-1,2-dimethyl-propyl)-phenol, hydrochloride]",minimal effective dose,naive female rats; mean of at least 2 experiments,0.2 mg/kg
"COc1cccc([C@@]2(O)C[C@H](O)CC[C@@H]2CN(C)C)c1.Cl [Compound 25, (+)-(1R,3R,6R)-6-dimethylaminomethyl-1-(3-methoxy-phenyl)-cyclohexane-1,3-diol, hydrochloride]","BC bladder capacity, change relative to the pre-value",[1]; 1.5 mg/kg iv,−14.0% *
same,"ICI interconnection interval, change relative to the pre-value",[1]; 1.5 mg/kg iv,−9.0 * %
same,"TP threshold pressure, change relative to the pre-value",[1]; 1.5 mg/kg iv,+62.0% *
